Consider seven compounds from ChEMBL document CHEMBL1159206, “Synthesis and biological activity of esters in the trans-1,2-dihydroxy-1,2-dihydroacronycine series” (J Nat Prod, 1998).

A word on the IC50: it is the concentration at which inhibition is half-maximal. High values mean a need for much substance, low ones inhibition by little substance. Usually T/C stands for the ratio of treated to control.

One assay relates to L1210. The assay can be described thus: Cytotoxicity against mouse L1210 cells after 48 hrs by […] assay. The note with it: L1210, 48 h. The format is functional, cell-based.
The subject of assay [1] is P388. The assay can be described thus: Antitumor activity against mouse P388 cells implanted in B6D2F1 mouse assessed as median survival time at 3.125 mg/kg, ip relative to control. The format is functional. The note with it: route intraperitoneal.
Assay [2] concerns P388. The experiment in a line: Antitumor activity against mouse P388 cells implanted in B6D2F1 mouse assessed as median survival time at 6.25 mg/kg, ip relative to control. Conditions: route intraperitoneal. The format is functional.
For assay [3], the system named is P388. The assay can be described thus: Antitumor activity against mouse P388 cells implanted in B6D2F1 mouse assessed as median survival time at 12.5 mg/kg, ip relative to control. Conditions: route intraperitoneal. It is filed as functional.
Assay [4] concerns P388. The experiment in a line: Antitumor activity against mouse P388 cells implanted in B6D2F1 mouse assessed as median survival time at 1.56 mg/kg, ip relative to control. It is filed as functional. The note with it: route intraperitoneal.
The subject of assay [5] is P388. The assay can be described thus: Antitumor activity against mouse P388 cells implanted in B6D2F1 mouse assessed as median survival time at 25 mg/kg, ip relative to control. Conditions: route intraperitoneal. The format is functional.
In assay [6] the test system is P388. The experiment in a line: Antitumor activity against mouse P388 cells implanted in B6D2F1 mouse assessed as median survival time at 0.78 mg/kg, ip relative to control. Conditions: route intraperitoneal. It is filed as functional.
For assay [7], the system named is P388. The experiment in a line: Antitumor activity against mouse P388 cells implanted in B6D2F1 mouse assessed as median survival time at 200 mg/kg, ip relative to control. The format is functional. The note with it: route intraperitoneal.

In the case of `COc1cc2c(c3c1c(=O)c1ccccc1n3C)C(=O)C(O)C(C)(C)O2` (racemic), the 50% inhibitory concentration (IC50) in the assay with L1210 is 75.1 µM. This counts as double-digit micromolar.

`COc1cc2c(c3c1c(=O)c1ccccc1n3C)C(=O)C(O)(CC(C)=O)C(C)(C)O2` (racemic) gave an IC50 in the assay with L1210 of 22.5 µM.

`COc1cc2c(c3c1c(=O)c1ccccc1n3C)[C@@H](O)[C@H](OC(=O)CCl)C(C)(C)O2` (racemic) showed an IC50 in the assay on L1210 of 11 µM.

Regarding `COc1cc2c(c3c1c(=O)c1ccccc1n3C)[C@@H](O)[C@H](OC(C)=O)C(C)(C)O2` (racemic), in the assay on L1210, the IC50 is 8.8 µM.

Regarding `COc1cc2c(c3c1c(=O)c1ccccc1n3C)[C@@H](OC(C)=O)[C@H](OC(C)=O)C(C)(C)O2` (racemic), the T/C with P388 [1] amounted to 155%; with P388 [2] it was 160%; in the assay on P388 [3] it was 181%; in the assay with P388 [4], 136%; with P388 [5] it was 77%; in the assay on P388 [6], 122%. This compound also showed an IC50 with L1210 of 8.7 µM.

For the compound `COc1cc2c(c3c1c(=O)c1ccccc1n3C)[C@@H](OC(C)=O)[C@@H](OC(C)=O)C(C)(C)O2` (relative stereo), the T/C in the assay on P388 [5] is listed as 268%.

As for `COc1cc2c(c3c1c(=O)c1ccccc1n3C)C=CC(C)(C)O2` [ACRONINE], the T/C with P388 [7] was determined as 125%. Besides, the midpoint of inhibition with L1210, the IC50, lay at 25 µM.
